# Experimental data: patent US12414961B2, “Substituted nucleosides and nucleotides for treating viral infections” (priority 2013, dated 2025)
# Assays:
# Cytotoxicity (CC50) CEM = details: human, CEM cells
# [1] = Cytotoxicity (CC50) BxPC3; details: human, BxPC3 cells
# Cytotoxicity (CC50) H9c = assay type: cell-based; details: rat, H9c cells
# [2] = Cytotoxicity (CC50) Huh-7; details: human, Huh-7 cells
# Dengue Type 2 [3] = assay: Anti-Dengue virus cytoprotection assay, Huh-7 cells; details: Huh-7, read-out: Dengue Type 2 Huh-7 Cells (EC50 uM)
# Cytotoxicity (CC50) A204 = assay type: cell-based; details: human, A204 cells
# [4] = Cytotoxicity (CC50) HepG2; details: human, HepG2 cells
# Dengue Type 2 [5] = assay: Anti-Dengue virus cytoprotection assay, Vero cells; details: read-out: Dengue Type 2 Vero Cells (EC50 uM)
# [6] = Cytotoxicity (CC50) IEC-6; assay type: cell-based; details: rat, IEC-6 cells
# [7] = Cytotoxicity in Huh-7 cells (Dengue assay); details: human, Huh-7 cells
# [8] = Cytotoxicity in Vero cells (Dengue assay); details: African green monkey
# Huh-7 cells [9] = assay: Cytotoxicity in Huh-7 cells (Dengue assay); details: read-out: CC50 uM; Cell Line Huh-7; […], 3, 4 table
# [10] = Cytotoxicity in HepG2 cells (HBV assay); assay type: cell-based; details: human, HepG2.2.15 cells; beside HBV
# Experimental: The 50% cytotoxic concentration for the test materials are derived by measuring the reduction of the tetrazolium dye XTT in the treated tissue culture plates. XTT is metabolized by the mitochondrial enzyme […] to a soluble formazan product in metabolically active cells. […] The 2-4 hour incubation has been empirically determined to be within linear response range for XTT dye reduction with the indicated numbers of cells for each assay. […] Data were collected by Softmax 4.6 software and imported into an Excel spreadsheet for analysis.
# VZV = VZV antiviral assay; assay type: cell-based; details: Human alphaherpesvirus 3
# [11] = Cytotoxicity in PBM cells; assay type: cell-based; details: human, peripheral blood mononuclear cells (PBMCs), PHA-P stimulated; beside HIV
# HIV = HIV infected PBMC assay; assay type: cell-based; details: Human immunodeficiency virus 1, PBMC
# Experimental: Fresh human peripheral blood mononuclear cells (PBMCs) were obtained from a commercial source (Biological Specialty) and were determined to be seronegative for HIV and HBV. Depending on the volume of donor blood received, the leukophoresed blood cells were washed several times with PBS. After washing, the leukophoresed blood was diluted 1:1 with Dulbecco's phosphate buffered saline (PBS) and layered over 15 mL of Ficoll-Hypaque density gradient in a 50 ml conical centrifuge tube. These tubes were centrifuged for 30 min at 600 g. Banded PBMCs were gently aspirated from the resulting interface and washed three times with PBS. […] After incubation, PBMCs were centrifuged and resuspended in tissue culture medium. The cultures were maintained until use by half-volume culture changes with fresh IL-2 containing tissue culture medium every 3 days. […]
# Following addition of test compound to the wells, 50 uL of a predetermined dilution of HIV virus (prepared from 4× of final desired in-well concentration) was added, and mixed well. […] After 7 days in culture, HIV-1 replication was quantified in the tissue culture supernatant by measurement of reverse transcriptase (RT) activity. […]
# Reverse Transcriptase Activity Assay—Reverse transcriptase activity was measured in cell-free supernatants using a standard radioactive incorporation polymerization assay. […]
# HCMV = HCMV antiviral assay; assay type: cell-based; details: Human betaherpesvirus 5
# MRC-5 Cells = assay: Cytotoxicity in MRC-5 cells (HCMV, VZV assays); assay type: cell-based; details: beside VZV
# [12] = Cytotoxicity in MRC-5 cells (HCMV, VZV assays); assay type: cell-based; details: human, MRC-5 cells; beside HCMV
# HSV-1 = HSV-1 antiviral assay; assay type: cell-based; details: Human alphaherpesvirus 1
# Huh-7 cells [13] = assay: Cytotoxicity in Huh-7 cells (Adenovirus, HSV-1 assays); assay type: cell-based, human; details: beside HSV-1
# Adenovirus = Adenovirus antiviral assay; assay type: cell-based; details: unidentified adenovirus
# HBV = HBV antiviral assay; assay type: cell-based; details: Hepatitis B virus
# Experimental: Ten microliters of cell culture supernatant collected on the sixth day was diluted in qPCR dilution buffer (40 μg/mL sheared salmon sperm DNA) and boiled for 15 minutes. Quantitative real time PCR was performed in […] using an Applied Biosystems 7900HT Sequence Detection System and the supporting SDS 2.4 software. Five microliters (5 μL) of boiled DNA for each sample and serial 10-fold dilutions of a quantitative DNA standard were subjected to real time Q-PCR using Platinum Quantitative PCR SuperMix-UDG (Invitrogen) and specific DNA oligonucleotide primers (IDT, Coralville, […]) HBV-AD38-qF1 (5′-[…] -3′) (SEQ ID NO: 1), HBV-AD38-qR1 (5′-AGT CCA AGA GTY CTC TTA TRY AAG ACC TT-3′) (SEQ ID NO: 2), and HBV-AD38-qP1 (5′-FAM CCG TGT GCA/ZEN/[…] -3′BHQ1) (SEQ ID NO: 3) at a final concentration of 0.2 μM for each primer in a total reaction volume of 15 μL. The HBV DNA copy number in each sample was interpolated from the standard curve by the SDS.24 software and the data were imported into an Excel spreadsheet for analysis.
structure (smiles),measurement,setting,value
CC(C)OC(=O)[C@H](C)NP(=O)(OC[C@H]1O[C@@H](n2ccc(=O)[nH]c2=S)C(C)(O)[C@H]1O)Oc1ccccc1 (some centres unmarked) [drawing 387],CC50,Cytotoxicity (CC50) CEM,> 300 µM
same,CC50,[1],> 300 µM
same,CC50,Cytotoxicity (CC50) H9c,> 200 µM
same,CC50,[2],> 400 µM
same,EC50,Dengue Type 2 [3],5.1 µM
same,CC50,Cytotoxicity (CC50) A204,98 µM
same,CC50,[4],> 400 µM
same,EC50,Dengue Type 2 [5],2.02 µM
same,CC50,[6],> 200 µM
same,CC50,[7],> 100 µM
same,CC50,[8],> 100 µM
CC(C)OC(=O)[C@H](C)N[P@](=O)(OC[C@H]1O[C@@H](n2ccc(=O)[nH]c2=S)C(C)(O)[C@H]1O)Oc1ccccc1 (some centres unmarked) [drawing 393],CC50,Huh-7 cells [9],> 100 µM
CC(C)OC(=O)[C@H](C)NP(=O)(OC[C@H]1O[C@@H](n2ccc(=O)[nH]c2=S)C(C)(O)[C@H]1O)Oc1ccccc1 (some centres unmarked) [drawing 394],CC50 at 6 days,[10],> 100 µM
same,EC50,VZV,> 100 µM
same,CC50 at 7 days,[11],> 100 µM
same,EC50,HIV,> 100 µM
same,EC50,HCMV,> 100 µM
same,CC50,MRC-5 Cells,> 100 µM
same,CC50,[12],> 100 µM
same,EC50,HSV-1,> 100 µM
same,CC50,Huh-7 cells [13],> 100 µM
same,EC50,Adenovirus,> 100 µM
same,EC50,HBV,> 100 µM
